Experimental data as given in the NIST ThermoML archive (doi:10.1016/j.fluid.2009.01.012).
Numbers after ± are expanded uncertainties.

Conditions: DTA

Glass transition temperature: -47.6 ± 5 °C
SMILES: CC(C)C[P+](C)(CC(C)C)CC(C)C.Cc1ccc(S(=O)(=O)[O-])cc1 [triisobutylmethylphosphonium p-toluenesulfonate]
